Assays:
Galectin-1 = Galectin-1 (Homo sapiens, UniProt P09382); experiment: (§1) Fluorescence Polarization-Based Assay: Compounds 7, 15-19, and 22 were evaluated for their efficiency in inhibiting galectin-1 and galectin-3 in a known fluorescence polarization-based assay (Sörme et al., 2003a, 2004). All compounds were potent inhibitors of galectin-1 and galectin-3 with dissociation constant in the low μM or nM range. This evidences that a properly structured cyclohexane can mimic the subsite D-binding saccharide moiety, e.g. N-acetylglucosamine in the disaccharide N-acetyllactosamine.
Galectin-3 = Galectin-3 (Homo sapiens, UniProt P17931); experiment: as §1
Chain of Galectin-3 (P17931 whole entry): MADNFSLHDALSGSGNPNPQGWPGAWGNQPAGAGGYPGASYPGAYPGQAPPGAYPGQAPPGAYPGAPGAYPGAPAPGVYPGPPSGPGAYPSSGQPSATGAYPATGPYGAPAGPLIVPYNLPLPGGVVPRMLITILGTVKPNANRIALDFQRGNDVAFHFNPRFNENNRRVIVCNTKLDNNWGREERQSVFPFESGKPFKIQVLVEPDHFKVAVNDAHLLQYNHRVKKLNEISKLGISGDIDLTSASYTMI

Chain of Galectin-1 (P09382 whole entry): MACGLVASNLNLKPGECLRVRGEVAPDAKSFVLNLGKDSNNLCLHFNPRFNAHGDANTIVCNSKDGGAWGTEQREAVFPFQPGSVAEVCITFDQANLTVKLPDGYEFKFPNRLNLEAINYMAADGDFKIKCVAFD

Kd (Galectin-1): 65 µM | Kd (Galectin-3): 59 µM
SMILES: CO[C@@H]1OC(CO)[C@@H](O[C@@H]2OC(CO)[C@H](O)[C@H](O)C2O)[C@H](O)C1NC(C)=O (some centres not stated)
